# Data as given in publication PMC6941952, “A homogeneous bioluminescent immunoassay to probe cellular signaling pathway regulation” (Communications Biology, 2020).
# pIC50: −log10 of the molar value. Values joined by “and” are separate entries in the source; they are usually repeats but may differ in a detail not shown here. Equal values may be shown once.
# Test system: total IκBα
# Assay: NanoBiT cell-based immunoassay, total IκBα in MCF-7 cells
# Parameters: species or system human
# Settings: for Average IkB protein (%) / Raw data IkB / Subtract reagent background IkB / protein (%) IkB: MCF-7, Fig 7c; for protein (%) IkB: replicate; for IkB degradation (% compared to no IKK16), Average / IkB degradation (% compared to no IKK16) / Non-Treated/Treated / Raw data / Subtract reagent background: TNF; for IkB degradation (% compared to no IKK16), Average: average of replicates; for IkB degradation (% compared to no IKK16) / Non-Treated/Treated / Raw data / Subtract reagent background: single replicates
# Procedure: Prior to NanoBiT Cell-Based Immunoassay, 50,000 cells were seeded in 160 µl of complete growth media per well of a 96-well plate and incubated overnight. […] If necessary, the cell culture media were replaced with serum-free media after the cells were stably adherent on the plate and incubated overnight. To treat cells with activators or inhibitors, medium was changed to 30 µl of medium containing inhibitors. If activation of a specific pathway is needed, the cells were stimulated with 10 µl of medium containing activators. To lyse the cells, 10 µl of lysis buffer containing 0.1% digitonin diluted in 1X immunoassay buffer with protease and phosphatase inhibitors was added and the plates were mixed vigorously for 20 min. Then, 50 µl of an antibody mix containing two primary antibodies against the target protein and NanoBiT detecting antibodies (0.3 µl each per well), diluted in 1X immunoassay buffer was added to the lysates. The plates were incubated at 23 °C for 90 min, followed by the addition of 25 µl of Nano-Glo® reagent consisting of Nano-Glo® Luciferase Assay Substrate mixed with 1X immunoassay buffer. Luminescence was measured using a plate-reading luminometer.
# Single dose or dose response inhibitor treatments were performed prior to activation of the pathways as follows. For IκBα, the cells were treated in 30 µl medium with IKK16 or MG132 for 60 min before the addition of 10 µl of DMEM containing appropriate concentration of TNFα. To measure phosphorylation of AKT or STAT3, the corresponding NanoBiT immunoassays were developed with MCF-7 or A431 cells, respectively, according the same scheme used to develop the IκBα assay using the primary antibodies for AKT and STAT3 described in the reagents section. […] Treatment with LY294002 was performed in 30 µl medium and cells were incubated for 60 min before the addition of 1 µM Insulin. To measure STAT3 phosphorylation, A431 cells were incubated overnight in DMEM medium without serum. […] After addition of the stimulators, the cells were incubated for additional times as follows. IκBα phosphorylation and degradation analyses required both time courses and single time points as described in figures. […] The NanoBiT immunoassay protocol was followed as described above.
# All 96-well assay plates were read using a GloMax® 96 Microplate Luminometer from Promega. The instrument was set to 0.5 s integration time. In order to obtain net change of signal, the reagent background values (signal from the well containing all reagent except primary antibodies) were subtracted from the sample values. To plot and analyze the data, Microsoft Excel and GraphPad Prism® Software were used. IC50 values were determined by using a nonlinear regression fit to a sigmoidal dose response (variable slope).
# [1] = MCF-7 cells, IKK16 0.000762939 uM
# [2] = MCF-7 cells, IKK16 0.00305176 uM
# [3] = MCF-7 cells, IKK16 0.0488281 uM
structure (smiles),measurement,setting,value
C[C@]12CC[C@@H]3c4ccc(O)cc4C[C@@H](CCCCCCCCC[S+]([O-])CCCC(F)(F)C(F)(F)F)[C@H]3[C@@H]1CC[C@@H]2O (stereo partly shown) [Fulvestrant],Average IkB protein (%),"Fulvestrant 0.0976562 nM, 4 h",103.1%
same,Raw data IkB,"Fulvestrant 0.0976562 nM, 4 h",2320000 and 2388000 and 2321000
same,Subtract reagent background IkB,"Fulvestrant 0.0976562 nM, 4 h",2160700 and 2093700 and 2092700
same,protein (%) IkB,"Fulvestrant 0.0976562 nM, 4 h",102.8% and 100.3% and 106.3%
same,Average IkB protein (%),"Fulvestrant 0.195312 nM, 4 h",102.8%
same,Raw data IkB,"Fulvestrant 0.195312 nM, 4 h",2292000 and 2388000 and 2330000
same,Subtract reagent background IkB,"Fulvestrant 0.195312 nM, 4 h",2161100 and 2103100 and 2065100
same,protein (%) IkB,"Fulvestrant 0.195312 nM, 4 h",102.8% and 100.7% and 104.9%
same,Average IkB protein (%),"Fulvestrant 0.390625 nM, 4 h",106.4%
same,Raw data IkB,"Fulvestrant 0.390625 nM, 4 h",2337000 and 2479000 and 2412000
same,Subtract reagent background IkB,"Fulvestrant 0.390625 nM, 4 h",2252550 and 2185550 and 2110550
same,protein (%) IkB,"Fulvestrant 0.390625 nM, 4 h",107.1% and 104.7% and 107.3%
same,Average IkB protein (%),"Fulvestrant 0.78125 nM, 4 h",107.7%
same,Raw data IkB,"Fulvestrant 0.78125 nM, 4 h",2309000 and 2550000 and 2458000
same,Subtract reagent background IkB,"Fulvestrant 0.78125 nM, 4 h",2323650 and 2231650 and 2082650
same,protein (%) IkB,"Fulvestrant 0.78125 nM, 4 h",110.5% and 106.9% and 105.8%
same,Average IkB protein (%),"Fulvestrant 1.5625 nM, 4 h",109.4%
same,Raw data IkB,"Fulvestrant 1.5625 nM, 4 h",2305000 and 2596000 and 2525000
same,Subtract reagent background IkB,"Fulvestrant 1.5625 nM, 4 h",2368700 and 2297700 and 2077700
same,protein (%) IkB,"Fulvestrant 1.5625 nM, 4 h",110.1% and 105.6%
same,Average IkB protein (%),"Fulvestrant 3.125 nM, 4 h",110.7%
same,Raw data IkB,"Fulvestrant 3.125 nM, 4 h",2392000 and 2556000 and 2547000
same,Subtract reagent background IkB,"Fulvestrant 3.125 nM, 4 h",2330150 and 2321150 and 2166150
same,protein (%) IkB,"Fulvestrant 3.125 nM, 4 h",110.8% and 111.2% and 110.1%
same,Average IkB protein (%),"Fulvestrant 6.25 nM, 4 h",107.5%
same,Raw data IkB,"Fulvestrant 6.25 nM, 4 h",2316000 and 2499000 and 2485000
same,Subtract reagent background IkB,"Fulvestrant 6.25 nM, 4 h",2273600 and 2259600 and 2090600
same,protein (%) IkB,"Fulvestrant 6.25 nM, 4 h",108.1% and 108.2% and 106.2%
same,Average IkB protein (%),"Fulvestrant 25 nM, 4 h",102.2%
same,Raw data IkB,"Fulvestrant 25 nM, 4 h",2228000 and 2399000 and 2343000
same,Subtract reagent background IkB,"Fulvestrant 25 nM, 4 h",2174600 and 2118600 and 2003600
same,protein (%) IkB,"Fulvestrant 25 nM, 4 h",103.4% and 101.5% and 101.8%
same,Average IkB protein (%),"Fulvestrant 50 nM, 4 h",99.5%
same,Raw data IkB,"Fulvestrant 50 nM, 4 h",2216000 and 2302000 and 2278000
same,Subtract reagent background IkB,"Fulvestrant 50 nM, 4 h",2078950 and 2054950 and 1992950
same,protein (%) IkB,"Fulvestrant 50 nM, 4 h",98.9% and 98.4% and 101.3%
same,Average IkB protein (%),"Fulvestrant 100 nM, 4 h",94.0%
same,Raw data IkB,"Fulvestrant 100 nM, 4 h",2084000 and 2146000 and 2219000
same,Subtract reagent background IkB,"Fulvestrant 100 nM, 4 h",1926250 and 1999250 and 1864250
same,protein (%) IkB,"Fulvestrant 100 nM, 4 h",91.6% and 95.8% and 94.7%
same,cytotoxicity inferred from IκBα level,"MCF-7 cells, 4 h",lack of cytotoxicity
same,effect on IκBα protein level,"MCF-7 cells, 4 h, same compound titration",did not affect
O=C(c1ccc(Nc2nccc(-c3cc4ccccc4s3)n2)cc1)N1CCC(N2CCCC2)CC1 [IKK16],Total IkB Raw data,Figure 3a and 3b,147500 and 141100 and 148400
same,Total IkB Subtract reagent background,Figure 3a and 3b,129800 and 128900 and 122500
same,Total IkB Average,"Figure 3a and 3b, background subtracted",127067
same,TNFα-induced reduction of total IκBα protein,"MCF-7 cells, 10 µM 1 h, TNFα 50 ng per ml 10 min",abolished
same,"IkB degradation (% compared to no IKK16), Average",[1],98.1%
same,IkB degradation (% compared to no IKK16),[1],101% and 97% and 93%
same,Non-Treated/Treated,[1],4.060 and 4.672 and 4.565 and 4.365
same,Raw data,[1],21820 and 22100 and 21310 and 21710
same,Subtract reagent background,[1],13931 and 13141 and 13541 and 13651
same,"IkB degradation (% compared to no IKK16), Average",[2],96.3%
same,IkB degradation (% compared to no IKK16),[2],103% and 93% and 95% and 94%
same,Non-Treated/Treated,[2],4.119 and 4.303 and 4.479 and 4.413
same,Raw data,[2],21670 and 21900 and 22440 and 21970
same,Subtract reagent background,[2],13731 and 14271 and 13801 and 13501
same,"IkB degradation (% compared to no IKK16), Average","MCF-7 cells, IKK16 0.012207 uM",97.0%
same,IkB degradation (% compared to no IKK16),"MCF-7 cells, IKK16 0.012207 uM",101% and 95% and 99% and 94%
same,Non-Treated/Treated,"MCF-7 cells, IKK16 0.012207 uM",4.063 and 4.367 and 4.623 and 4.410
same,Raw data,"MCF-7 cells, IKK16 0.012207 uM",21680 and 22090 and 22230 and 21540
same,Subtract reagent background,"MCF-7 cells, IKK16 0.012207 uM",13921 and 14061 and 13371 and 13511
same,"IkB degradation (% compared to no IKK16), Average",[3],102.5%
same,IkB degradation (% compared to no IKK16),[3],101% and 107% and 103% and 99%
same,Non-Treated/Treated,[3],4.060 and 4.927 and 4.840 and 4.651
same,Raw data,[3],20980 and 22100 and 20630 and 20940
same,Subtract reagent background,[3],13931 and 12461 and 12771 and 12811
same,"IkB degradation (% compared to no IKK16), Average","MCF-7 cells, IKK16 0.195312 uM",98.7%
same,IkB degradation (% compared to no IKK16),"MCF-7 cells, IKK16 0.195312 uM",99% and 97% and 98% and 100%
same,Non-Treated/Treated,"MCF-7 cells, IKK16 0.195312 uM",3.986 and 4.488 and 4.616 and 4.698
same,Raw data,"MCF-7 cells, IKK16 0.195312 uM",20850 and 22360 and 21850 and 21560
same,Subtract reagent background,"MCF-7 cells, IKK16 0.195312 uM",14191 and 13681 and 13391 and 12681
same,"IkB degradation (% compared to no IKK16), Average","MCF-7 cells, IKK16 0.78125 uM",84.0%
same,IkB degradation (% compared to no IKK16),"MCF-7 cells, IKK16 0.78125 uM",86% and 82% and 85%
same,Non-Treated/Treated,"MCF-7 cells, IKK16 0.78125 uM",3.457 and 3.811 and 3.985 and 3.866
same,Raw data,"MCF-7 cells, IKK16 0.78125 uM",23580 and 24530 and 24280 and 23680
same,Subtract reagent background,"MCF-7 cells, IKK16 0.78125 uM",16361 and 16111 and 15511 and 15411
same,"IkB degradation (% compared to no IKK16), Average","MCF-7 cells, IKK16 3.125 uM",40.0%
same,IkB degradation (% compared to no IKK16),"MCF-7 cells, IKK16 3.125 uM",42% and 41% and 39% and 38%
same,Non-Treated/Treated,"MCF-7 cells, IKK16 3.125 uM",1.686 and 1.873 and 1.836 and 1.807
same,Raw data,"MCF-7 cells, IKK16 3.125 uM",41140 and 41710 and 40950 and 41840
same,Subtract reagent background,"MCF-7 cells, IKK16 3.125 uM",33541 and 32781 and 33671 and 32971
same,pIC50,"MCF-7 cells, pretreated 1 h, then TNFα 50 ng per ml 30 min, read-out: IC50, inhibition of TNFα induced degradation of IκBα",5.84
